The text below walks through data of article PMC3274619 (Bioorganic & medicinal chemistry letters, 2012).

This data set is described as follows: Solubility observed during synthesis and purification. In kind it is physicochemical. To be noted: cause of yield and purification difficulties.

Take `Cc1nc(N)sc1-c1csc(Nc2cc(N(C)C)ccc2Cl)n1` [compound 15, N^2-(2-chloro-5-(dimethylamino)phenyl)-4′-methyl-[4,5′-bithiazole]-2,2′-diamine]: the solubility entry is “poor solubility”.
